Data taken from US10188108B2, “Fused bicyclic heterocycle derivatives as pesticides” (BAYER CROPSCIENCE AKTIENGESELLSCHAFT, priority 2015, dated 2019).
Like-named read-outs stand apart in the source and are kept apart here.

How the values were obtained:
Musca domestica = Musca domestica test; assay type: in vivo; conditions: after 2 days, adult houseflies
Protocol: • Solvent: dimethyl sulphoxide To produce a suitable preparation of active compound, 10 mg of active compound are mixed with 0.5 ml of dimethyl sulphoxide, and the concentrate is diluted with water to the desired concentration. Vessels containing a sponge treated with sugar solution and the active compound preparation of the desired concentration are populated with 10 adult houseflies (Musca domestica). After 2 days, the kill in % is determined. 100% means that all of the flies have been killed; 0% means that none of the flies have been killed.

Lucilia cuprina = Lucilia cuprina test; assay type: in vivo; conditions: 100 ppm, after 2 days, L1 larvae
Protocol: • Solvent: dimethyl sulphoxide To produce a suitable preparation of active compound, 10 mg of active compound are mixed with 0.5 ml of dimethyl sulphoxide, and the concentrate is diluted with water to the desired concentration. About 20 L1 larvae of the Australian sheep blowfly (Lucilia cuprina) are transferred into a test vessel containing minced horsemeat and the active compound preparation of the desired concentration. After 2 days, the kill in % is determined. 100% means that all the larvae have been killed; 0% means that no larvae have been killed.

Phaedon cochleariae = Phaedon cochleariae - spray test; assay type: in vivo; conditions: 500 g/ha, after 7 days, larvae on Chinese cabbage leaf discs
Protocol: (§1) • Solvent: 78.0 parts by weight of acetone • 1.5 parts by weight of dimethylformamide • Emulsifier: alkylaryl polyglycol ether
(§2) To produce a suitable preparation of active compound, 1 part by weight of active compound is dissolved using the stated parts by weight of solvent and made up with water containing an emulsifier concentration of 1000 ppm until the desired concentration is attained. To produce further test concentrations, the preparation is diluted with emulsifier-containing water.
After 7 days, the efficacy in % is determined. 100% means that all the beetle larvae have been killed; 0% means that no beetle larvae have been killed.

Ctenocephalides felis [1] = assay: Ctenocephalides felis - in vitro contact tests with adult cat fleas; assay type: in vivo; conditions: 5 μg/cm^2 (=500 g/ha), after 48 h, adult cat fleas dead or moribund
Protocol: For the coating of the test tubes, 9 mg of active compound are first dissolved in 1 ml of acetone p.a. and then diluted to the desired concentration with acetone p.a. 250 μl of the solution are distributed homogeneously on the inner walls and the base of a 25 ml test tube by turning and rocking on an orbital shaker (rocking rotation at 30 rpm for 2 h). With 900 ppm active compound solution and internal surface 44.7 cm^2, given homogeneous distribution, an area-based dose of 5 μg/cm^2 is achieved.
After the solvent has evaporated off, the tubes are populated with 5-10 adult cat fleas (Ctenocephalides felis), sealed with a perforated plastic lid and incubated in a horizontal position at room temperature and ambient humidity. After 48 h, efficacy is determined. To this end, the test tubes are stood upright and the fleas are knocked to the base of the tube. Fleas which remain motionless at the base or move in an uncoordinated manner are considered to be dead or moribund.
100% efficacy means that all the fleas were dead or moribund. 0% efficacy means that no fleas were harmed.

Ctenocephalides felis [2] = assay: Ctenocephalides felis - oral test; assay type: in vivo; conditions: 100 ppm in citrated cattle blood, after 2 days, adult cat fleas
Protocol: • Solvent: dimethyl sulphoxide To produce a suitable preparation of active compound, 10 mg of active compound are mixed with 0.5 ml of dimethyl sulphoxide. Dilution with citrated cattle blood gives the desired concentration. About 20 unfed adult cat fleas (Ctenocephalides felis) are placed into a chamber which is closed at the top and bottom with gauze. A metal cylinder whose bottom end is closed with parafilm is placed onto the chamber. The cylinder contains the blood/active compound preparation, which can be imbibed by the fleas through the parafilm membrane. After 2 days, the kill in % is determined. 100% means that all of the fleas have been killed; 0% means that none of the fleas have been killed.

[3] = log P by HPLC on a reversed-phase column (C 18), EEC Directive 79/831 Annex V.A8; assay type: physicochemical; conditions: for LOGP_NEUTRAL: pH 7.8, 0.001 molar aqueous ammonium hydrogencarbonate/acetonitrile; for chromatographic logP: reversed-phase HPLC column (C 18)
Protocol: The log P values are measured according to EEC Directive 79/831 Annex V.A8 by HPLC (high-performance liquid chromatography) on a reversed-phase column (C 18). Temperature: 55° C.
The LC-MS determination in the acidic range is effected at pH 2.7 using 0.1% aqueous formic acid and acetonitrile (contains 0.1% formic acid) as eluents; linear gradient from 10% acetonitrile to 95% acetonitrile. Called log P (HCOOH) in the table.
LC-MS determination in the neutral range is effected at pH 7.8 with 0.001 molar aqueous ammonium hydrogencarbonate solution and acetonitrile as eluents; linear gradient from 10% acetonitrile to 95% acetonitrile. Called log P (neutral) in the table.
Calibration is carried out using unbranched alkan-2-ones (having 3 to 16 carbon atoms) with known log P values (log P values determined on the basis of the retention times by linear interpolation between two successive alkanones).

Spodoptera frugiperda = Spodoptera frugiperda - spray test; assay type: in vivo; conditions: 500 g/ha, after 7 days, caterpillars on maize leaf discs
Protocol: as §1, §2
Leaf discs of maize (Zea mays) are sprayed with an active compound preparation of the desired concentration and, after drying, populated with caterpillars of the armyworm (Spodoptera frugiperda).
After 7 days, the efficacy in % is determined. 100% means that all the caterpillars have been killed; 0% means that no caterpillars have been killed.

Myzus persicae = Myzus persicae - spray test (Chinese cabbage leaf discs); assay type: in vivo; conditions: 500 g/ha, after 5-6 days
Protocol: • Solvent: 78 parts by weight of acetone • 1.5 parts by weight of dimethylformamide • Emulsifier: alkylaryl polyglycol ether
as §2
Discs of Chinese cabbage leaves (Brassica pekinensis) infested by all stages of the green peach aphid (Myzus persicae) are sprayed with an active compound preparation of the desired concentration.
After 5-6 days, the efficacy in % is determined. 100% means that all the aphids have been killed; 0% means that no aphids have been killed.

[4] = acidic range, pH 2.7, 0.1% aqueous formic acid/acetonitrile, 55° C.
[5] = neutral range, pH 7.8, value in preparation example text, read-out: log P (neutral)
[6] = acidic range, pH 2.7, 0.1% aqueous formic acid/acetonitrile, 55° C., read-out: LOGP_HCOOH

SMILES	LOGP_HCOOH [3, 4]	LOGP_NEUTRAL ([3]; neutral range, 55° C.)	chromatographic logP [3, 5]	chromatographic logP [3, 6]	efficacy (kill) (Musca domestica; 4 ppm)	efficacy (kill) (Lucilia cuprina)	efficacy (Phaedon cochleariae)	efficacy (Ctenocephalides felis [1])	efficacy (kill) (Ctenocephalides felis [2])	efficacy (Spodoptera frugiperda)	efficacy (Myzus persicae)	efficacy (kill) (Musca domestica; 20 ppm)
CCS(=O)(=O)c1c(-c2nc3cc(C(F)(F)F)ccc3n2C)nc2cc(C(F)(F)F)ccn12 [Example I-34]	3.72	–	–	–	–	–	100%	100%	–	100%	–	–
CC[S+]([O-])c1c(-c2nc3cc(C(F)(F)F)ccc3n2C)nc2ccccn12 (stereo not shown) [Example I-11]	2.92	2.85	–	–	–	–	100%	–	–	100%	90%	–
CC[S+]([O-])c1c(-c2nc3cc(C(F)(F)F)ncc3n2C)nc2ccc(Cl)cn12 (stereo not shown) [Example I-7]	2.93	2.83	–	–	–	–	–	–	–	100%	90%	–
CCS(=O)(=O)c1c(-c2nc3cc(C(F)(F)F)ccc3n2C)nc2cccc(C)n12 [Example I-46]	2.73	–	–	–	–	–	83%	–	–	–	90%	–
CCS(=O)(=O)c1c(-c2nc3cc4c(cc3n2C)OC(F)(F)O4)nc2ccccn12 [Example I-41, 6-[3-(Ethylsulphonyl)imidazo[1,2-a]pyridin-2-yl]-2,2-difluoro-5-methyl-5H-[1,3]dioxolo[4,5-f]benzimidazole]	–	2.62	2.62	2.59	–	–	100%	–	–	83%	90%	–
CCS(=O)(=O)c1c(-c2nc3cc(C(F)(F)F)ncc3n2C)nc2ccc(OC)cn12 [Example I-54]	2.41	2.37	–	–	–	–	–	–	–	100%	90%	–
CCS(=O)(=O)c1c(-c2nc3cc(C(F)(F)F)ccc3n2C)nc2cc(C)ccn12 [Example I-33]	3.01	–	–	–	–	–	–	100%	–	83%	–	–
CCS(=O)(=O)c1c(-c2nc3cc(C(F)(F)F)ccc3n2C)nc2ccc(C(F)(F)F)cn12 [Example I-36]	3.70	–	–	–	–	–	100%	–	–	100%	–	–
CCS(=O)(=O)c1c(-c2nc3cc(C(F)(F)F)cnc3n2C)nc2ccc(C)cn12 [Example I-53]	2.84	2.78	–	–	–	–	–	–	–	100%	100%	–
CCS(=O)(=O)c1c(-c2nc3cc(C(F)(F)F)cnc3o2)nc2ccc(C(F)(F)F)cn12 [Example I-47]	3.51	–	–	–	–	–	100%	–	–	83%	–	–

Now from value to compound, other results behind:

LOGP_HCOOH [3, 4]	LOGP_NEUTRAL ([3]; neutral range, 55° C.)	chromatographic logP [3, 5]	chromatographic logP [3, 6]	SMILES	efficacy (kill) (Musca domestica; 4 ppm)	efficacy (kill) (Lucilia cuprina)	efficacy (Phaedon cochleariae)	efficacy (Ctenocephalides felis [1])	efficacy (kill) (Ctenocephalides felis [2])	efficacy (Spodoptera frugiperda)	efficacy (Myzus persicae)	efficacy (kill) (Musca domestica; 20 ppm)
3.00	2.98	–	–	CCS(=O)(=O)c1c(-c2nc3cc(C(F)(F)F)ncc3n2C)nc2cc(C(F)(F)F)ccn12 [Example I-17]	80%	100%	100%	100%	100%	100%	100%	–
2.08	2.05	2.07	–	CCS(=O)(=O)c1c(-c2nc3cc(C(F)(F)F)ncc3n2C)nc2ccccn12 [Example I-1, 2-(3-Ethylsulphonylimidazo[1,2-a]pyridin-2-yl)-3-methyl-6-(trifluoromethyl)imidazo[4,5-c]pyridine]	85%	100%	83%	100%	98%	100%	90%	–
2.56	2.50	–	–	CCS(=O)(=O)c1c(-c2nc3cc(C(F)(F)F)ncc3n2C)nc2c(Cl)cccn12 [Example I-19]	–	–	100%	–	–	100%	90%	–
2.69	2.66	–	–	CCS(=O)(=O)c1c(-c2nc3cc(C(F)(F)F)ncc3n2C)nc2cccc(C(F)(F)F)n12 [Example I-21]	–	–	100%	–	–	100%	100%	–
2.67	2.61	–	–	CCS(=O)(=O)c1c(-c2nc3cc(C(F)(F)F)ncc3n2C)nc2ccc(Cl)cn12 [Example I-4]	80%	100%	–	100%	90%	100%	90%	–
2.43	2.36	–	–	CCS(=O)(=O)c1c(-c2nc3cc(C(F)(F)F)ncc3n2C)nc2ccc(C)cn12 [Example I-48]	–	–	–	–	–	100%	90%	–
1.40	3.71	–	–	CCSc1c(-c2nc3cc(C(F)(F)F)ncc3n2C)nc2c(C(F)(F)F)cccn12 [Example I-13]	–	–	100%	–	–	100%	–	–
–	2.75	2.75	2.84	CCSc1c(-c2nc3cc(C(F)(F)F)ncc3n2C)nc2ccccn12 [Example I-2, 2-(3-Ethylsulphanylimidazo[1,2-a]pyridin-2-yl)-3-methyl-6-(trifluoromethyl)imidazo[4,5-c]pyridine]	–	–	–	–	–	–	90%	–
2.30	2.30	–	–	CC[S+]([O-])c1c(-c2nc3cc(C(F)(F)F)ncc3n2C)nc2cccc(C(F)(F)F)n12 (stereo not shown) [Example I-22]	–	–	100%	–	–	–	90%	–
4.50	–	–	–	CCSc1c(-c2nc3cc(C(F)(F)F)ccc3n2C)nc2cc(C(F)(F)F)ccn12 [Example I-30]	–	–	83%	–	–	100%	–	–
2.66	2.64	–	–	CCS(=O)(=O)c1c(-c2nc3cc(C(F)(F)F)ncc3n2C)nc2cc(Cl)ccn12 [Example I-23]	–	–	100%	100%	–	100%	–	–
3.09	3.06	–	–	CCS(=O)(=O)c1c(-c2nc3cc(C(F)(F)F)ncc3n2C)nc2ccc(C(F)(F)F)cn12 [Example I-6]	–	100%	100%	100%	100%	100%	90%	90%
